≈ marks a conversion by molar mass, not a printed value. Read-outs that look alike come from different tables or passages of the source.
Experiments:
[1] = system: Streptococcus spp. spontaneous mutants; test: organism not typed; assay type: cell-based
In short: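 Spontaneous mutants from drug selection plates were tested by CLSI broth microdilution in MHB II with two-fold serial drug dilutions. Inoculum was about 5×10^5 CFU/mL, incubated aerobically at 35° C. for 18-20 hr. MIC was the lowest concentration inhibiting visible growth.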

E. coli ATCC 25922 = test: Time-kill assay; assay type: cell-based, Escherichia coli; conditions: 2×, 4×, 8× MIC; 2, 6, 24 hr
E. coli ATCC 35218 = test: Time-kill assay; assay type: cell-based, Escherichia coli; conditions: 2×, 4×, 8× MIC; 2, 6, 24 hr
Prevotella spp. = test: Agar dilution MIC, 30 clinical isolates; assay type: cell-based
S. pneumoniae ATCC 49619 = test: Broth microdilution MIC (time-kill study); assay type: cell-based, Streptococcus pneumoniae
S. agalactiae = test: Spontaneous mutation frequency and mutation prevention concentration (MPC); assay type: cell-based; conditions: S. agalactiae ATCC 13813
From the text: As used herein, “spontaneous mutation frequency” refers to the rate at which mutations arise in a bacterium that can lead to resistance to develop to an antimicrobial agent. “Mutation prevention concentration” or “MPC” refers to the lowest concentration of antimicrobial agent above which the selective proliferation of resistant mutants is expected to occur only rarely.

[2] = system: Veillonella spp. clinical isolates; test: MIC distribution against clinical isolates; assay type: cell-based
From the text: (n=19 V. parvula, n=9 Veillonella spp., n=1 Veillonella dispr., n=1 V. atypica) clinical isolates (μg/mL).
As used herein, “minimum inhibitory concentration” or “MIC” refers to the lowest concentration of an antimicrobial agent, for example, an antimicrobial agent as described herein, required to inhibit the growth of an organism. […] “MIC90” represents the MIC value at which ≥90% of the strains within a test population are inhibited; the 90th percentile.
Many susceptibility testing methods are known in the art and can be used as described herein (see, e.g., Jorgensen and Ferraro (2009) Clinical Infectious Diseases 49:1749-1755; and Maurer et al. (2017) Infectious Disease Reports 9:6839; the entire contents of each of the foregoing are incorporated herein by reference). For example, antimicrobial susceptibility can be determined using conventional culture based methods such as the broth or agar dilution test. In these dilution tests, the bacterial isolate of interest is inoculated onto different media that include serial dilutions of an antimicrobial agent, and incubated under appropriate conditions (e.g., overnight at 37° C.) to allow for growth to occur. Following the incubation period, the media is examined to determine bacterial growth. The lowest concentration of antibiotic that prevents growth represents the minimal inhibitory concentration (MIC). Broth dilution tests can be miniaturized and mechanized allowing for reproducibility and high throughput.

[3] = system: E. coli spontaneous mutants; test: Broth microdilution MIC of spontaneous mutants; assay type: cell-based, Escherichia coli; conditions: Escherichia coli
Method: Select isolates were subcultured onto agar containing drug at the selection concentration, were identified by MALDI, and were frozen for broth microdilution MIC testing as described below.
To determine whether colonies growing on drug selection plates had elevated MIC values to the selecting antibiotic, susceptibility testing by broth microdilution was conducted on isolated mutants following methodology recommended by CLSI (1), (2), and (3) “Performance Standards for Antimicrobial Susceptibility Testing; Twenty-Eighth Informational Supplement.,” CLSI document M100-S28, 2018.
All wells in columns 2 through 12 of a standard 96-well microdilution plate (Costar 3795) were filled with 150 μL of the appropriate diluent. Then, 300 μL of the test agents were added to the wells of column 1 of the plates at […] the highest final concentration to be tested. Serial two-fold dilutions were made across the rows through column 11 using the Biomek 2000. The wells of column 12 contained no drug and served as the growth control wells. This plate served as the “mother plate” from which selected MIC assay plates or “daughter plates” were made.
2 μL of drug solution from each well of a mother plate was added to each corresponding well of the daughter plate in a single step. A standardized inoculum of each aerobic test organism was prepared per CLSI methods to equal a 0.5 McFarland standard, followed by a dilution of 1:20 in MHB II. The plates were then inoculated with 10 μL of the diluted inoculum using the Biomek 2000 from low to high drug concentration, resulting in a final concentration of approximately 5×10^5 CFU/mL. An un-inoculated plate was incubated for the purpose of assessing solubility of the drug in the test media.
The plates for the aerobic tests were stacked 3-4 high, covered with a sterile lid on the top plate, and incubated aerobically at 35° C. for 18-20 hr. The MIC was recorded as the lowest concentration of drug that inhibited visible growth of the organism.

[4] = 30 Prevotella spp. clinical isolates
[5] = ceftriaxone selection 8X MIC, 0.5 μg/mL
[6] = MIC 0.5 μg/mL, 30 Veillonella spp. isolates
[7] = MIC 1 μg/mL, 30 Veillonella spp. isolates
[8] = MIC 2 μg/mL, 30 Veillonella spp. isolates
[9] = MIC 4 μg/mL, 30 Veillonella spp. isolates
[10] = MIC 8 μg/mL, 30 Veillonella spp. isolates
[11] = MIC 16 μg/mL, 30 Veillonella spp. isolates
[12] = MIC 32 μg/mL, 30 Veillonella spp. isolates

Molecule `CO/N=C(\C(=O)N[C@@H]1C(=O)N2C(C(=O)O)=C(CSc3nc(=O)c(=O)[nH]n3C)CS[C@H]12)c1csc(N)n1` [ceftriaxone] has an MIC ([1]; S. pneumoniae ATCC 49619, selected on rifaximin 4X MIC, Colony A) of 0.03 µg/mL (≈ 0.0541 µM), an MIC ([1]; S. pneumoniae ATCC 49619, selected on rifaximin 4X MIC, Colony B) of 0.06 µg/mL (≈ 0.108 µM) and an MIC ([1]; S. pneumoniae ATCC 49619, selected on rifaximin 8X MIC, Colony A) of 0.03 µg/mL (≈ 0.0541 µM). It also gave an MIC ([1]; S. pneumoniae ATCC 49619, selected on rifaximin 8X MIC, Colony B) of 0.03 µg/mL (≈ 0.0541 µM), an MIC ([1]; S. pneumoniae ATCC 49619 Parent) of 0.06 µg/mL (≈ 0.108 µM) and an MIC ([1]; S. pyogenes ATCC 49399, selected on rifaximin 4X MIC, Colony A) of 0.008 µg/mL (≈ 0.0144 µM). It also gave an MIC ([1]; S. pyogenes ATCC 49399, selected on rifaximin 4X MIC, Colony B) of 0.015 µg/mL (≈ 0.027 µM), an MIC ([1]; S. pyogenes ATCC 49399, selected on rifaximin 8X MIC, Colony A) of 0.015 µg/mL (≈ 0.027 µM) and an MIC ([1]; S. pyogenes ATCC 49399, selected on rifaximin 8X MIC, Colony B) of 0.008 µg/mL (≈ 0.0144 µM). For the same molecule, the MIC ([1]; S. pyogenes ATCC 49399 Parent) was 0.015 µg/mL (≈ 0.027 µM), the MIC ([1]; Streptococcus, ATCC13813, S. agaloctiae ATCC 13813, selected on rifaximin 4X MIC, Colony A) was 0.015 µg/mL (≈ 0.027 µM) and the MIC ([1]; Streptococcus, ATCC13813, S. agaloctiae ATCC 13813, selected on rifaximin 4X MIC, Colony B) was 0.015 µg/mL (≈ 0.027 µM). It also gave an MIC ([1]; Streptococcus, ATCC13813, S. agaloctiae ATCC 13813, selected on rifaximin 8X MIC, Colony A) of 0.015 µg/mL (≈ 0.027 µM), an MIC ([1]; Streptococcus, ATCC13813, S. agaloctiae ATCC 13813, selected on rifaximin 8X MIC, Colony B) of 0.06 µg/mL (≈ 0.108 µM) and an MIC ([1]; Streptococcus, ATCC13813, S. agaloctiae ATCC 13813 Parent) of 0.015 µg/mL (≈ 0.027 µM). The “time-kill kinetics outcome (bactericidal = ≥3 log reduction in CFU per mL)” value (E. coli ATCC 25922) was “bactericidal at 8×MIC at 24 hr”, the “time-kill kinetics outcome (bactericidal = ≥3 log reduction in CFU per mL)” value (E. coli ATCC 35218) was “bactericidal at 24 hr at 4× and 8×MIC” and the MIC range (Prevotella spp.) was 0.12 to 128 µg/mL. For the same molecule, the isolates resistant (Prevotella spp.) was 33%, the “isolates with intermediate resistance” value (Prevotella spp.) was 20% and the “% I” value (Prevotella spp.; [4]) was 20%. For the same molecule, the “% R” value (Prevotella spp.; [4]) was 33%, the “% S” value (Prevotella spp.; [4]) was 47% and the MIC50 (Prevotella spp.; [4]) was 32 µg/mL (≈ 57.7 µM). It also gave an MIC90 (Prevotella spp.; [4]) of 64 µg/mL (≈ 115 µM), an MIC range (Prevotella spp.; [4]) of 0.12 to 128 µg/mL and an MIC50 (Prevotella spp.; Prevotella, read-out: MIC50) of 32 µg/mL (≈ 57.7 µM). It also gave an MIC90 (Prevotella spp.; Prevotella, read-out: MIC90) of 64 µg/mL (≈ 115 µM), a Mode (Prevotella spp.; modal MIC, 30 Prevotella spp. clinical isolates) of 64 µg/mL and an MIC (S. pneumoniae ATCC 49619; S. pneumoniae ATCC 49619) of 0.06 µg/mL (≈ 0.108 µM). The MIC (S. pneumoniae ATCC 49619; Streptococcus pneumoniae, ATCC49619, broth microdilution, read-out: MIC) was 0.06 µg/mL (≈ 0.108 µM), the “Average Count” value (S. agalactiae; [5]) was 0 CFU and the “Count 1” value (S. agalactiae; [5]) was 0 CFU. The “Count 2” value (S. agalactiae; [5]) was 0 CFU, the “Spontaneous Mutation Frequency” value (S. agalactiae; [5]) was ≤1.73 × 10^−10 and the MPC (S. agalactiae; mutant prevention concentration) was 0.12 µg/mL. For the same molecule, the “Cumulative percentage of isolates inhibited at MIC” value [2] was 100.0%, the “Number of test isolates at MIC” value [2] was 1 and the “Cumulative percentage of isolates inhibited at MIC” value [2, 6] was 10.0%. For the same molecule, the “Number of test isolates at MIC” value [2, 6] was 3, the “Cumulative percentage of isolates inhibited at MIC” value [2, 7] was 23.3% and the “Number of test isolates at MIC” value [2, 7] was 4. For the same molecule, the “Cumulative percentage of isolates inhibited at MIC” value [2, 8] was 26.7%, the “Number of test isolates at MIC” value [2, 8] was 1 and the “Cumulative percentage of isolates inhibited at MIC” value [2, 9] was 30.0%. The “Number of test isolates at MIC” value [2, 9] was 1, the “Cumulative percentage of isolates inhibited at MIC” value [2, 10] was 40.0% and the “Number of test isolates at MIC” value [2, 10] was 3. The “Cumulative percentage of isolates inhibited at MIC” value [2, 11] was 86.7%, the “Number of test isolates at MIC” value [2, 11] was 14 and the “Cumulative percentage of isolates inhibited at MIC” value [2, 12] was 96.7%. For the same molecule, the “Number of test isolates at MIC” value [2, 12] was 3, the MIC ([3]; ATCC25922, E. coli ATCC 25922, selected on rifaximin 4X MIC, Colony A) was 0.03 µg/mL and the MIC ([3]; ATCC25922, E. coli ATCC 25922, selected on rifaximin 4X MIC, Colony B) was 0.03 µg/mL. The MIC ([3]; ATCC25922, E. coli ATCC 25922, selected on rifaximin 8X MIC, Colony A) was 0.03 µg/mL, the MIC ([3]; ATCC25922, E. coli ATCC 25922 Parent (Table 52)) was 0.12 µg/mL and the MIC ([3]; ATCC35218, E. coli ATCC 35218, selected on rifaximin 4X MIC, Colony A) was 0.03 µg/mL. The MIC ([3]; ATCC35218, E. coli ATCC 35218, selected on rifaximin 4X MIC, Colony B) was 0.03 µg/mL, the MIC ([3]; ATCC35218, E. coli ATCC 35218, selected on rifaximin 8X MIC, Colony A) was 0.06 µg/mL and the MIC ([3]; ATCC35218, E. coli ATCC 35218, selected on rifaximin 8X MIC, Colony B) was 0.03 µg/mL. The MIC ([3]; ATCC35218, E. coli ATCC 35218 Parent (Table 52)) was 0.03 µg/mL, the MIC ([3]; E. coli MMX 1312, selected on ceftriaxone 4X MIC, Colony A) was 3 µg/mL and the MIC ([3]; E. coli MMX 1312, selected on ceftriaxone 4X MIC, Colony B) was 4 µg/mL. It also gave an MIC ([3]; E. coli MMX 1312, selected on ceftriaxone 4X MIC, Colony C) of 8 µg/mL, an MIC ([3]; E. coli MMX 1312, selected on ceftriaxone 8X MIC, Colony A) of 3 µg/mL and an MIC ([3]; E. coli MMX 1312, selected on ceftriaxone 8X MIC, Colony B) of 3 µg/mL. It also gave an MIC ([3]; E. coli MMX 1312, selected on ceftriaxone 8X MIC, Colony C) of 4 µg/mL, an MIC ([3]; E. coli MMX 1312, selected on rifaximin 4X MIC, Colony A) of 2 µg/mL and an MIC ([3]; E. coli MMX 1312, selected on rifaximin 4X MIC, Colony B) of 2 µg/mL. The MIC ([3]; E. coli MMX 1312, selected on rifaximin 8X MIC, Colony A) was 8 µg/mL, the MIC ([3]; E. coli MMX 1312, selected on rifaximin 8X MIC, Colony B) was 8 µg/mL and the MIC ([3]; E. coli MMX 1312 Parent) was 4 µg/mL. The MIC ([3]; E. coli MMX 1312 Parent (Table 49)) was 4 µg/mL, the MIC ([3]; E. coli MMX 1312 Parent (Table 52)) was 4 µg/mL and the MIC ([3]; E. coli MMX 1312 mutant selected on meropenem 4X MIC, colony A) was 4 µg/mL. It also gave an MIC ([3]; E. coli MMX 1312 mutant selected on meropenem 4X MIC, colony B) of 8 µg/mL, an MIC ([3]; E. coli MMX 1312 mutant selected on meropenem 4X MIC, colony C) of 4 µg/mL and an MIC ([3]; E. coli MMX 1312 mutant selected on meropenem 8X MIC, colony A) of 4 µg/mL. It also gave an MIC ([3]; E. coli MMX 1312 mutant selected on meropenem 8X MIC, colony B) of 4 µg/mL and an MIC ([3]; E. coli MMX 1312 mutant selected on meropenem 8X MIC, colony C) of 4 µg/mL.

— US20210386367A1, “DEVICES AND SYSTEMS FOR GASTROINTESTINAL MICROBIOME DETECTION AND MANIPULATION” (Progenity, Inc., priority 2018, published 2021)
